{"source": "patent US7544773B2", "about": "(priority 2003, dated 2009)", "molecular_target": "Dr hemagglutinin (Escherichia coli, UniProt P24093)", "sequence (P24093 22-160)": "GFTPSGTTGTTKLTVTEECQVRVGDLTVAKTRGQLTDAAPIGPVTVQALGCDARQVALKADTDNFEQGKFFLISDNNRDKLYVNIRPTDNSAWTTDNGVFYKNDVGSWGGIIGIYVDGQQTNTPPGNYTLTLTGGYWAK", "assay_type": "cell-based, E. coli"}
{"substance": "TTGTTKL", "values": [{"measurement": "polymerisation of Dr hemagglutinin judged by hemaglutination assay", "value": "completely abolished"}]}
